Where two headings read alike, the source gives them in different places.
Assays:
[1] = test system: inflammatory cytokines IL-6 and IL-12; assay: Anti-asthma pharmacodynamic experiment: inflammatory cytokines in bronchoalveolar lavage fluid (ELISA); assay type: in vivo, female BALB/c mice; conditions: for IL-6 / IL-12: bronchoalveolar lavage fluid, 0.3 mg/mL, 50 µL intratracheally once daily for 3 days
Method: Pharmacological Example 4: Pharmacodynamic Experiment on Anti-Asthma
The suspensions were stored at room temperature protected from light until use.
Positive control drug: Budesonide Suspension for Inhalation (specification: 2 mL: 1 mg; AstraZeneca Inc.; Lot No. : 327392) was diluted with injection-grade sodium chloride solution to 0.3 mg/ml as the positive control drug, and stored at room temperature protected from light until use.
Sixty female BALB/c mice underwent a one-week adaptive feeding period. Ten mice were randomly selected as the blank control group, while 50 mice were selected to establish asthma models.
From days 21 to 23 after sensitization, the mice in the model group and drug administration group were exposed to a 30-minute aerosol challenge with 5% OVA, while the mice in the blank control group were exposed to normal saline aerosol for the same duration.
At the end of airway hyperresponsiveness testing in mice, the mice were euthanized by cervical dislocation and fixed on a dissection tray. The abdomens and thoracic cavities of the mice were opened, and the skin and excess tissues of the neck were excised to expose the trachea of the mice. A small incision was made transversely on the trachea with a small scissors. A pre-treated 1 mL syringe needle was inserted and fastened with surgical thread. A 1 mL syringe was used to slowly inject 0.5 mL of pre-chilled phosphate-buffered saline (PBS) into the lungs of the mice, followed by slow aspiration. Each mouse was lavaged once, and a total of approximately 0.4 ml of lavage fluid was collected. The bronchoalveolar lavage fluid was centrifuged at 3000 rpm for 5 min. After centrifugation, the supernatant was aliquoted, and the levels of inflammatory cytokines IL-6 and IL-12 in the bronchoalveolar lavage fluid were determined using ELISA kits.
Statistical analysis was performed using SPSS software. Measurement data were expressed as mean ± standard deviation. One-way ANOVA was used for intergroup comparisons. For data with homogeneous variance, LSD test was used; for data with heterogeneous variance, Dunnett-t test was used. A value of P < 0.05 was considered statistically significant.

[2] = test system: asthma model mice; assay: Anti-asthma pharmacodynamic experiment: airway hyperresponsiveness (Penh) after methacholine challenge; assay type: in vivo, female BALB/c mice; conditions: for Penh values in mice, Methacholine concentration (mg/ml) 0 / Penh values in mice, Methacholine concentration (mg/ml) 6.25 / Penh values in mice, Methacholine concentration (mg/ml) 12.5: 0.3 mg/mL, 50 µL intratracheally once daily for 3 days; for Penh values in mice, Methacholine concentration (mg/ml) 0: methacholine 0 mg/ml; for Penh values in mice, Methacholine concentration (mg/ml) 6.25: methacholine 6.25 mg/ml; for Penh values in mice, Methacholine concentration (mg/ml) 12.5: methacholine 12.5 mg/ml
[3] = molecular target: T1, progesterone receptor (PR) (Homo sapiens, UniProt P06401); assay: Assay for agonist activity on progesterone receptor (luciferase reporter, HEK293 cells transfected with pBIND-PR plasmid); assay type: cell-based; conditions: for EC50: EC50 of agonist activity, HEK293 reporter cells, top concentration 50 µM, read-out: Nuclear receptor enzyme activity (nM) PR; for Target selectivity PR/GR: ratio of EC50 values
T1 sequence (P06401 678-933): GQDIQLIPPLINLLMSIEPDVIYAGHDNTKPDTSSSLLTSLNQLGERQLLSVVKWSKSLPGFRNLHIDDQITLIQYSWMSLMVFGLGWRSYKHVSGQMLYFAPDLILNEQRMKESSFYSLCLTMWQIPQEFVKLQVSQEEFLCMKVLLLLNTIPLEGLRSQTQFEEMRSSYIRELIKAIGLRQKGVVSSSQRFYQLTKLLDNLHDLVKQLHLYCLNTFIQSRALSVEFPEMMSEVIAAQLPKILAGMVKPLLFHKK
Method: (§1) Pharmacological Example 2: Assay for Agonist Activity on Mineralocorticoid Receptor (MR) and Progesterone Receptor (PR)
(§2) Test compound stock solutions: The test compounds (compounds 4, 5, 7, 8, 9, 11, 13, 16, 17, 18, 22, 23, 24, 34, 35, 36, 38, 41, 45, 47, 53, 55, and 59) were accurately weighed, dissolved in DMSO to prepare stock solutions at a concentration of 20 mM, and stored at -20 °C.
(§3) The test compounds were subjected to a 4-fold serial dilution starting from an initial concentration of 50 µ M, generating a 12-point concentration gradient with duplicate wells for each concentration. The blank control consisted of 0.1% DMSO.
(§4) The HEK293 stable cell lines […] transfected with mineralocorticoid receptor (MR) and progesterone receptor (PR) (ICE Bioscience, Lot No. TYP-20220819, TPJ-20220812) were cultured in Dulbecco's Modified Eagle Medium (DMEM) supplemented with 10% fetal bovine serum (FBS) and 200 µ g/ml Hygromycin B in a cell incubator containing 5% CO2 at 37 °C. The spent medium was aspirated, and the cells were washed once with phosphate-buffered saline (PBS). Then, 1 mL of TrypLE™ Express solution was added, and the cells were incubated at 37 °C for approximately 2 min. When the cells detached from the bottom of the cell culture dish, approximately 5 mL of pre-warmed complete medium at 37 °C was added. The cell suspension was gently pipetted with a pipette to dissociate clumped cells. The cell suspension was transferred to a sterile centrifuge tube and centrifuged at 1000 rpm for 5 min to pellet the cells for experiments or subculture..
(§5) HEK293 cells were digested and seeded into 6-cm culture dishes. The pBIND-MR and pBIND-PR plasmids were separately transfected into the HEK293 cells using a transfection reagent, resulting in HEK293 cells successfully transfected with the pBIND-MR and pBIND-PR plasmids, respectively. The cells were resuspended in phenol red-free DMEM medium containing 5% charcoal-stripped serum, counted, and then seeded into 96-well plates. The test compounds were added, and the plates were then incubated in an incubator. The luminescence signal values were measured using a multimode microplate reader following the instructions of the luciferase assay kit. The EC50 values of each test compound were calculated using the nonlinear fitting formula with GraphPad Prism 8.0 software.

[4] = molecular target: T2, mineralocorticoid receptor (MR) (Homo sapiens, UniProt P08235); assay: Assay for agonist activity on mineralocorticoid receptor (luciferase reporter, HEK293 cells transfected with pBIND-MR plasmid); assay type: cell-based; conditions: for EC50: EC50 of agonist activity, HEK293 reporter cells, top concentration 50 µM, read-out: Nuclear receptor enzyme activity (nM) MR; for Target selectivity MR/GR: ratio of EC50 values
T2 sequence (P08235 726-984): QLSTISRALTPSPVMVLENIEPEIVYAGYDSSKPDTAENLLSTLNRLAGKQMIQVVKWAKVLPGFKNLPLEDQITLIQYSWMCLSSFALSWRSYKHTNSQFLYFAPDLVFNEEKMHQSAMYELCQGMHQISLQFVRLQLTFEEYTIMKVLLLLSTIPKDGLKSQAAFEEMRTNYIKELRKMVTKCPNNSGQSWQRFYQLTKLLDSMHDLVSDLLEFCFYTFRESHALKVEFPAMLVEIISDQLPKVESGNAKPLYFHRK
Method: as §1, §2, §3, §4, §5

[5] = test system: intraocular pressure of guinea pigs; assay: Adverse reactions of continuous ocular administration: intraocular pressure; assay type: in vivo
Method: Pharmacological Example 9: Experiment on Adverse Reactions of Continuous Ocular Administration in Guinea Pigs
Test samples: Compounds 17 and 23 were prepared as 5 mg/5 mL ophthalmic suspensions with reference to the formulation of Fluorometholone Eye Drops, and stored at room temperature protected from light until use.
Positive control drug: Fluorometholone Eye Drops (specification: 5 mL/5 mg; Santen Pharmaceutical (CHINA) Co., Ltd.; Lot No.: 1FM6545), Loteprednol Etabonate Eye Drops (specification 0.5% (5 mg/mL); Shandong Bausch & Lomb Freda Pharmaceutical Co., Ltd; Lot No. 386521), stored at room temperature protected from light until use.
Animals: 50 guinea pigs, conventional grade, with an equal number of males and females, weighing 300-350 g..
Animal grouping: After 5 days of adaptive feeding, the guinea pigs were randomly divided into 5 groups based on body weight. Group 1 was the blank control group, and 50 µL of normal saline was dropped into the eyes (bilateral) of the guinea pigs. Groups 2 to 5 were the fluorometholone group, loteprednol group, compound 17 group, and compound 23 group, respectively, and the corresponding drugs were dropped into the eyes (bilateral) of the guinea pigs. Table 19. Animal grouping and drug administration dosages for the experiment on adverse reactions of continuous ocular administration in guinea pigs
Intraocular pressure measurement time: The intraocular pressure of animals in each group was measured before administration and on days 7, 14, 21, and 28 post-administration.

[6] = molecular target: T3, glucocorticoid receptor (GR) (Homo sapiens, UniProt P04150); assay: Assay for agonist activity on glucocorticoid receptor (luciferase reporter, HEK293 cells transfected with pBIND-GR plasmid); assay type: cell-based
T3 sequence (P04150 521-777): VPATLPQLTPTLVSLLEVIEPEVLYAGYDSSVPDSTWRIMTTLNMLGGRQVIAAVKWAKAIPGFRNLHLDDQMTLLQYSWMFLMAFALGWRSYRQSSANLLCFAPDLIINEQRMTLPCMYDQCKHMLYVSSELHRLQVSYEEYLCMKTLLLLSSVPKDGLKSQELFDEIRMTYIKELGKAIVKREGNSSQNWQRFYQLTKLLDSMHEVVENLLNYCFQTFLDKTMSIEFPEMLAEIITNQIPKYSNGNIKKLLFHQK
Method in brief: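 Readout is luciferase luminescence, with EC50 derived by nonlinear fitting. Compounds ran at 10 concentrations (4-fold steps, top 10 µM, duplicate wells) on pBIND-GR-transfected HEK293 cells in phenol red-free DMEM plus 5% charcoal-stripped serum; 0.1% DMSO served as blank.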

[7] = EC50 of agonist activity, HEK293 reporter cells, read-out: Nuclear receptor enzyme activity (nM) GR
[8] = HEK293 cells transfected with pBIND-GR, luciferase signal, read-out: GR agonist EC50

| SMILES | EC50 [3] [nM] | EC50 [4] [nM] | EC50 [6, 7] [nM] | EC50 [6, 8] [nM] | Target selectivity PR/GR [3] | Target selectivity MR/GR [4] | other results |
| --- | --- | --- | --- | --- | --- | --- | --- |
| C[C@]12C=CC(=O)C=C1[C@@H](F)C[C@H]1[C@@H]3C[C@H]4OC(c5ccc(CSC6COC(=O)C6)cc5)O[C@@]4(C(=O)CO)[C@@]3(C)C[C@H](O)[C@@]12F (stereo partly drawn) [Compound 11, (2S,6aS,6bR,7S,8aS,8bS,11aR,12aS,12bS)-2,6b-Difluoro-7-hydroxy-8b-(2-hydroxyacetyl)-6a,8a-dimethyl-10-(4-(((5-oxotetrahydrofuran-3-yl)thio)methyl)phenyl)-1,2,6a,6b,7,8,8a,8b,11a,12,12a, 12b-dodecahydro-4H-naphtho[2',1':4,5]indeno[1,2-d][1,3]dioxol-4-one] | > 50000 | > 50000 | – | – | – | – | IL-6 [1]: 16.3 ± 7.9 pg/mL; IL-12 [1]: 11.1 ± 3.7 pg/mL; Effects on inflammatory cytokines in bronchoalveolar lavage fluid of mice ([1]; compared with the model group): extremely significantly decreased the levels of IL-6 and IL-12 in mice; Penh values in mice, Methacholine concentration (mg/ml) 0 [2]: 1.08 ± 0.18; Penh values in mice, Methacholine concentration (mg/ml) 6.25 [2]: 1.45 ± 0.31; Penh values in mice, Methacholine concentration (mg/ml) 12.5 [2]: 1.92 ± 0.34; Effects on airway hyperresponsiveness (Penh values) in mice ([2]; compared with the model group): significantly decreased the Penh values in mice |
| CCOC(=O)O[C@]1(C(=O)OCCl)CC[C@H]2[C@@H]3CCC4=CC(=O)C=C[C@]4(C)[C@H]3[C@@H](O)C[C@@]21C [Loteprednol, Loteprednol Etabonate, reference compound] | – | – | – | – | – | – | intraocular pressure after continuous ocular administration [5]: intraocular pressure elevation was detected on day 7; Intraocular pressure of guinea pigs (mmHg) D0 ([5]; D0, before administration, 50 µL/eye (compounds and fluorometholone 1 mg/mL, loteprednol 5 mg/mL)): 14.0 ± 1.8 mmHg; Intraocular pressure of guinea pigs (mmHg) D7 ([5]; D7, 50 µL/eye (compounds and fluorometholone 1 mg/mL, loteprednol 5 mg/mL)): 19.0 ± 3.5 mmHg; Intraocular pressure of guinea pigs (mmHg) D14 ([5]; D14, 50 µL/eye (compounds and fluorometholone 1 mg/mL, loteprednol 5 mg/mL)): 18.5 ± 1.5 mmHg; Intraocular pressure of guinea pigs (mmHg) D21 ([5]; D21, 50 µL/eye (compounds and fluorometholone 1 mg/mL, loteprednol 5 mg/mL)): 18.5 ± 0.7 mmHg; Intraocular pressure of guinea pigs (mmHg) D28 ([5]; D28, 50 µL/eye (compounds and fluorometholone 1 mg/mL, loteprednol 5 mg/mL)): 19.5 ± 0.6 mmHg |
| C[C@]12C=CC(=O)C=C1[C@@H](F)C[C@H]1[C@@H]3C[C@H]4OC(c5ccc(COC6CCOC6=O)cc5F)O[C@@]4(C(=O)CO)[C@@]3(C)C[C@H](O)[C@@]12F (stereo partly drawn) [Compound 7, (2S,6aS,6bR,7S,8aS,8bS,11aR,12aS,12bS)-2,6b-Difluoro-10-(2-fluoro-4-(((2-oxotetrahydrofuran-3-yl)oxy)methyl)phenyl)-7-hydroxy-8b-(2-hydroxyacetyl)-6a,8a-dimethyl-1,2,6a,6b,7,8,8a,8b,11a, 12,12a,12b-dodecahydro-4H-naphtho[2',1':4,5]indeno[1,2-d][1,3]dioxol-4-one] | > 50000 | > 50000 | 1.21 | 1.21 | > 4.1×10^4 | > 4.1×10^4 | – |
| CCCC1O[C@@H]2C[C@H]3[C@@H]4CCC5=CC(=O)C=C[C@]5(C)[C@H]4[C@@H](O)C[C@]3(C)[C@]2(C(=O)CO)O1 (some centres unmarked) [Budesonide, reference compound] | – | – | – | – | – | – | IL-6 [1]: 21.5 ± 6.8 pg/mL; IL-12 [1]: 17.5 ± 4.9 pg/mL; Penh values in mice, Methacholine concentration (mg/ml) 0 [2]: 1.12 ± 0.30; Penh values in mice, Methacholine concentration (mg/ml) 6.25 [2]: 1.65 ± 0.29; Penh values in mice, Methacholine concentration (mg/ml) 12.5 [2]: 2.14 ± 0.38 |
| C[C@]12C=CC(=O)C=C1CC[C@H]1[C@@H]3C[C@H]4OC(C5CCC(SC6CCOC6=O)CC5)O[C@@]4(C(=O)CO)[C@@]3(C)C[C@H](O)[C@@]12F (stereo partly drawn) [Compound 45, (6aS,6bR,7S,8aS,8bS,11aR,12aS,12bS)-6b-Fluoro-7-hydroxy-8b-(2-hydroxyacetyl)-6a,8a-dimethyl-10-(4-((2-oxotetrahydrofuran-3-yl)thio)cyclohexyl)-1,2,6a,6b,7,8,8a,8b,11a,12,12a,12b-dodeca hydro-4H-naphtho[2',1':4,5]indeno[1,2-d][1,3]dioxol-4-one] | > 50000 | > 50000 | 1.62 | 1.62 | > 3.1×10^4 | > 3.1×10^4 | – |
| C[C@]12C=CC(=O)C=C1CC[C@H]1[C@@H]3C[C@H]4OC(c5ccc(CNC6CCOC6=O)cc5)O[C@@]4(C(=O)CO)[C@@]3(C)C[C@H](O)[C@@]12Cl (stereo partly drawn) [Compound 24, (6aS,6bR,7S,8aS,8bS,11aR,12aS,12bS)-6b-Chloro-7-hydroxy-8b-(2-hydroxyacetyl)-6a,8a-dimethyl-10-(4-(((2-oxotetrahydrofuran-3-yl)amino)methyl)phenyl)-1,2,6a,6b,7,8,8a,8b,11a,12,12a,12b-dodecahydro-4H-naphtho[2',1':4,5]indeno[1,2-d][1,3]dioxol-4-one] | > 50000 | > 50000 | 1.12 | 1.12 | > 4.5×10^4 | > 4.5×10^4 | – |
| C[C@]12C=CC(=O)C=C1CC[C@H]1[C@@H]3C[C@H]4OC(c5ccc(CS(=O)(=O)C6CCOC6=O)cc5)O[C@@]4(C(=O)CO)[C@@]3(C)C[C@H](O)[C@@]12F (stereo partly drawn) [Compound 59, (6aS,6bR,7S,8aS,8bS,11aR,12aS,12bS)-6b-Fluoro-7-hydroxy-8b-(2-hydroxyacetyl)-6a,8a-dimethyl-10-(4-(((2-oxotetrahydrofuran-3-yl)sulfonyl)methyl)phenyl)-1,2,6a,6b,7,8,8a,8b,11a,12,12a,12b-dodecahydro-4H-naphtho[2',1':4,5]indeno[1,2-d][1,3]dioxol-4-one] | > 50000 | > 50000 | 4.01 | 4.01 | > 1.2×10^4 | > 1.2×10^4 | – |
